Experimental data from the NIST ThermoML archive (doi:10.1021/je500513b).
± gives the expanded uncertainty stated by the source.

Assay: mn = molality of the nth substance listed, in mol/kg
Conditions: for surface tension liquid-gas: Pendant drop shape; for electrical conductivity: 100 kPa, Liquid, Mettler Toledo inLab 710

CCCCCCCCCCCCCC[N+](C)(C)CCC[N+](C)(C)CCCCCCCCCCCCCC.[Br-].[Br-] + O
Conditions | electrical conductivity, 298.15 K [S/m] | electrical conductivity, 303.15 K [S/m] | electrical conductivity, 308.15 K [S/m] | electrical conductivity, 313.15 K [S/m] | electrical conductivity, 318.15 K [S/m] | electrical conductivity, 323.15 K [S/m] | surface tension liquid-gas, 298.15 K [mN/m]
m1 = 1e-05 | – | – | – | – | – | – | 57.45 ± 7
m1 = 2e-05 | – | – | – | – | – | – | 53.65 ± 12
m1 = 3e-05 | – | – | – | – | – | – | 50.48 ± 6
m1 = 4e-05 | – | – | – | – | – | – | 47.51 ± 5.6
m1 = 5e-05 | – | – | – | – | – | – | 45.48 ± 5.1
m1 = 6e-05 | – | – | – | – | – | – | 42.44 ± 4.6
m1 = 7e-05 | – | – | – | – | – | – | 40.27 ± 4.3
m1 = 8e-05 | – | – | – | – | – | – | 38.27 ± 3.5
m1 = 9e-05 | – | – | – | – | – | – | 37 ± 2.4
m1 = 9.3e-05 | 0.00212 ± 0.0004 | – | 0.0026 ± 0.00042 | 0.00309 ± 0.00062 | 0.00331 ± 0.00057 | 0.00348 ± 0.00057 | –
m1 = 9.8e-05 | 0.00224 ± 0.00038 | 0.00251 ± 0.00048 | 0.00274 ± 0.0004 | 0.00324 ± 0.00061 | 0.00345 ± 0.00056 | 0.00363 ± 0.00056 | –
m1 = 0.0001 | – | – | – | – | – | – | 35.52 ± 2
m1 = 0.000104 | 0.00236 ± 0.00036 | 0.00267 ± 0.00044 | 0.00288 ± 0.00039 | 0.00343 ± 0.00051 | 0.00361 ± 0.00056 | 0.00382 ± 0.00056 | –
m1 = 0.000111 | 0.0025 ± 0.00033 | 0.00283 ± 0.0004 | 0.00302 ± 0.00041 | 0.00364 ± 0.00045 | 0.00382 ± 0.00051 | 0.004 ± 0.00059 | –
m1 = 0.000119 | 0.00264 ± 0.00034 | 0.003 ± 0.00041 | 0.00323 ± 0.00048 | 0.00382 ± 0.00046 | 0.00404 ± 0.00053 | 0.00422 ± 0.0006 | –
m1 = 0.00012 | – | – | – | – | – | – | 34.27 ± 0.75
m1 = 0.000125 | 0.00274 ± 0.00031 | 0.00311 ± 0.00038 | 0.00335 ± 0.00046 | 0.00391 ± 0.00043 | 0.0042 ± 0.00054 | 0.00441 ± 0.00061 | –
m1 = 0.000132 | 0.00285 ± 0.00027 | 0.00324 ± 0.00036 | 0.0035 ± 0.00045 | 0.00407 ± 0.00042 | 0.00435 ± 0.00055 | 0.00462 ± 0.00063 | –
m1 = 0.000139 | 0.00294 ± 0.00024 | 0.00337 ± 0.00032 | 0.00367 ± 0.00041 | 0.00423 ± 0.00042 | 0.00454 ± 0.00055 | 0.00486 ± 0.00064 | –
m1 = 0.00014 | – | – | – | – | – | – | 34.18 ± 0.35
m1 = 0.000147 | 0.00303 ± 0.00022 | 0.00351 ± 0.00029 | 0.00382 ± 0.0004 | 0.00441 ± 0.00044 | 0.00478 ± 0.00055 | 0.00512 ± 0.00065 | –
m1 = 0.000156 | 0.00311 ± 0.00019 | 0.00364 ± 0.00026 | 0.00398 ± 0.00036 | 0.00463 ± 0.00042 | 0.00506 ± 0.00055 | 0.00542 ± 0.00063 | –
m1 = 0.000164 | 0.00318 ± 0.00017 | 0.00373 ± 0.00023 | 0.00411 ± 0.00033 | 0.00479 ± 0.00041 | 0.00528 ± 0.00055 | 0.00565 ± 0.00063 | –
m1 = 0.00017 | – | – | – | – | – | – | 34.06 ± 0.36
m1 = 0.000172 | 0.00325 ± 0.00016 | 0.00381 ± 0.00022 | 0.00421 ± 0.0003 | 0.00497 ± 0.00041 | 0.0055 ± 0.00054 | 0.00593 ± 0.00062 | –
m1 = 0.000182 | 0.00331 ± 0.00015 | 0.0039 ± 0.00019 | 0.00434 ± 0.00026 | 0.00513 ± 0.00035 | 0.00572 ± 0.00047 | 0.0062 ± 0.00056 | –
m1 = 0.000192 | 0.00338 ± 0.00012 | 0.00399 ± 0.00016 | 0.00448 ± 0.00025 | 0.00532 ± 0.00029 | 0.00599 ± 0.0004 | 0.00651 ± 0.00049 | –
m1 = 0.0002 | 0.00343 ± 0.00013 | 0.00405 ± 0.00016 | 0.00455 ± 0.00024 | 0.00542 ± 0.00028 | 0.00614 ± 0.00039 | 0.00669 ± 0.00047 | 33.81 ± 0.34
m1 = 0.000208 | 0.00348 ± 0.00013 | 0.00412 ± 0.00016 | 0.00464 ± 0.00022 | 0.00552 ± 0.00025 | 0.00628 ± 0.00035 | 0.00688 ± 0.00042 | –
m1 = 0.000217 | 0.00352 ± 0.00012 | 0.00418 ± 0.00016 | 0.00471 ± 0.00019 | 0.00564 ± 0.00022 | 0.00642 ± 0.00031 | 0.00704 ± 0.00038 | –
m1 = 0.000227 | 0.00358 ± 0.00012 | 0.00426 ± 0.00016 | 0.00479 ± 0.00018 | 0.00574 ± 0.00022 | 0.00656 ± 0.00029 | 0.0072 ± 0.00035 | –
m1 = 0.000238 | 0.00365 ± 0.00013 | 0.00434 ± 0.00011 | 0.00488 ± 0.00029 | 0.00582 ± 0.00016 | 0.0067 ± 0.00021 | 0.00737 ± 0.00032 | –
m1 = 0.00025 | 0.00372 ± 0.00013 | 0.00443 ± 0.00011 | 0.00498 ± 0.00029 | 0.00594 ± 0.00017 | 0.00684 ± 0.0002 | 0.00754 ± 0.00031 | –
m1 = 0.0003 | – | – | – | – | – | – | 33.92 ± 0.34
